Assay results as given in US20100311912A1, “ANTIMICROBIAL SURFACES” (priority 2008, published 2010).
In brackets after ≈: the same amount, converted by molar mass. Where two headings read alike, the source gives them in different places.

Tests used:
Assay type in all cases: cell-based
[1] = system: Staphylococcus aureus ATCC 29213; test: Broth micro dilution assay for MIC and MBC; settings: S. aureus ATCC 29213
Method: All bacteria were grown on blood agar plates (Colombia agar-CM331, Oxoid Limited, Basingstoke, Hampshire, United Kingdom) supplemented with 5% v/v sheep blood) at 37° C. The Streptococcus species were incubated at 37° C. in the presence of 5% carbon dioxide (CO2).
Duplicate two-fold serial dilutions of test sample (100 μL/well) were prepared in sterile round-bottom 96-well plates (Sarstedt Australia Pty Ltd, Technology Park, SA, Australia), in the appropriate broth containing 2% DMSO. Bacterial cell suspension (100 μL) corresponding to 1×10^6 CFU/mL was added in all wells with the exception of wells containing saline, test sample and media sterility controls, respectively. Controls for bacterial growth without test sample were also included on each plate. Plates were then placed on a shaker for 10 min and incubated at 37° C. overnight. […] Vancomycin and gentamicin (Sigma, St Louis, Mo., United States of America) were used as positive controls for the Gram-positive and Gram-negative bacteria, respectively. Following the determination of the MIC, the MBC was determined by transferring a 10 μL aliquot from each of the wells at the concentration corresponding to the MIC and those concentrations above into 190 μL of appropriate broth in a sterile 96-well plate. […] The presence or absence of bacterial growth was determined by visual inspection. The MBC was considered to be the lowest concentration of the compound at which no growth occurred.

[2] = system: Gram-positive bacteria including S. aureus, S. pyogenes and S. pneumoniae; test: Broth micro dilution assay, Gram-positive bacteria; settings: for antimicrobial activity against other Gram-positive bacteria: S. aureus (ATCC 25925), S. pyogenes, S. pneumoniae, values not shown
Method: (§1) Staphylococcus aureus ATCC 29213 obtained from stock cultures stored at −70° C. at the Sansom Institute (University of South Australia, Adelaide, SA, Australia) was used as the test microorganism in a bioassay guided fractionation process. […] All bacteria were grown on blood agar plates (Colombia agar-CM331, Oxoid Limited, Basingstoke, Hampshire, United Kingdom) supplemented with 5% v/v sheep blood) at 37° C. The Streptococcus species were incubated at 37° C. in the presence of 5% carbon dioxide (CO2). Brain Heart Infusion broth (CM 225, Oxoid Limited) was used for the experiments to determine the minimum inhibitory concentration (MIC) and minimum bactericidal concentration (MBC) for the Streptococcus species while cation adjusted MH II broth (Becton Dickinson France SAS, Le Point de Claix, France) was used for the Staphylococcus species and the Gram-negative bacteria tested.
(§2) Broth micro dilution was used to determine the MIC of extract, fractions and pure compounds against S. aureus ATCC 29213. Duplicate two-fold serial dilutions of test sample (100 μL/well) were prepared in sterile round-bottom 96-well plates (Sarstedt Australia Pty Ltd, Technology Park, SA, Australia), in the appropriate broth containing 2% DMSO. Bacterial cell suspension (100 μL) corresponding to 1×10^6 CFU/mL was added in all wells with the exception of wells containing saline, test sample and media sterility controls, respectively. Controls for bacterial growth without test sample were also included on each plate. Plates were then placed on a shaker for 10 min and incubated at 37° C. overnight. […] Vancomycin and gentamicin (Sigma, St Louis, Mo., United States of America) were used as positive controls for the Gram-positive and Gram-negative bacteria, respectively. Following the determination of the MIC, the MBC was determined by transferring a 10 μL aliquot from each of the wells at the concentration corresponding to the MIC and those concentrations above into 190 μL of appropriate broth in a sterile 96-well plate. The plates were incubated under the same conditions as in the MIC experiment with the Streptococcus species incubated in the presence of 5% CO2. The presence or absence of bacterial growth was determined by visual inspection. The MBC was considered to be the lowest concentration of the compound at which no growth occurred.

[3] = system: Gram-negative bacteria tested; test: Broth micro dilution assay, Gram-negative bacteria; settings: all Gram-negative bacteria tested, maximum concentrations tested
Method: as §1
Broth micro dilution was used to determine the MIC of extract, fractions and pure compounds against S. aureus ATCC 29213. […] Following the determination of the MIC, the MBC was determined by transferring a 10 μL aliquot from each of the wells at the concentration corresponding to the MIC and those concentrations above into 190 μL of appropriate broth in a sterile 96-well plate. […] The presence or absence of bacterial growth was determined by visual inspection. […]

[4] = system: Salmonella typhimurium ATCC 13311; test: Broth micro dilution assay for MIC and MBC; settings: Salmonella enterica; S. typhimurium ATCC 13311; maximum concentration tested 250 μg/mL
Method: as §1, §2

[5] = system: Staphylococcus aureus ATCC 25923; test: Broth micro dilution assay for MIC and MBC; settings: ATCC25923, S. aureus ATCC 25923
Method: as §1, §2

[6] = system: Streptococcus pneumoniae ATCC 49619; test: Broth micro dilution assay for MIC and MBC; settings: ATCC49619, S. pneumoniae ATCC 49619
Method: as §1, §2

[7] = system: Escherichia coli ATCC 25922; test: Broth micro dilution assay for MIC and MBC; settings: ATCC25922, E. coli ATCC 25922, maximum concentration tested 250 μg/mL
Method: as §1, §2

[8] = system: Pseudomonas aeruginosa ATCC 27853; test: Broth micro dilution assay for MIC and MBC; settings: ATCC27853, P. aeruginosa ATCC 27853, maximum concentration tested 250 μg/mL
Method: as §1, §2

[9] = system: Streptococcus pyogenes ATCC 10389; test: Broth micro dilution assay for MIC and MBC; settings: ATCC10389, S. pyogenes ATCC 10389
Method: as §1, §2

[10] = range over Gram-positive bacteria of Table 2

Compound: 8,20-diacetoxyserrulat-14-en-19-oic acid [Compound 5]
- MIC [1]: 250 µg/mL

Compound: 8,20-dihydroxyserrulat-14-en-19-oic acid [Compound 4]
- MIC [1]: 250 µg/mL

Compound: CC(C)=CCCC1COC2=C(C)C(=O)C(=O)c3cccc1c32 (stereo not shown) [Compound 2, 9-methyl-3-(4-methyl-3-pentenyl)-2,3-dihydronaphtho[1,8-bc]pyran-7,8-dione]
- MBC [2, 10]: 7.8 to 125 µg/mL (≈ 26.3 to 422 µM)
- MIC [2, 10]: 7.8 to 15.6 µg/mL (≈ 26.3 to 52.6 µM)
- activity against Gram-negative bacteria [3]: Activity was not observed
- MBC ([1]; Staphylococcus aureus, ATCC29213): 125 µg/mL (≈ 422 µM)
- MIC ([1]; Staphylococcus aureus, ATCC29213, read-out: MIC): 15.6 µg/mL (≈ 52.6 µM)
- MBC [4]: > 250 µg/mL
- MIC [4]: > 250 µg/mL
- MBC [5]: 15.6 µg/mL (≈ 52.6 µM)
- MIC [5]: 7.8 µg/mL (≈ 26.3 µM)
- MBC [6]: 7.8 µg/mL (≈ 26.3 µM)
- MIC [6]: 7.8 µg/mL (≈ 26.3 µM)
- MBC [7]: > 250 µg/mL
- MIC [7]: > 250 µg/mL
- MBC [8]: > 250 µg/mL
- MIC [8]: > 250 µg/mL
- MBC [9]: 15.6 µg/mL (≈ 52.6 µM)
- MIC [9]: 7.8 µg/mL (≈ 26.3 µM)

Compound: CC(=O)OCC(CCC=C(C)C)C1CCC(C)c2ccc(C(=O)O)c(O)c21 (stereo not shown) [Compound 3, 20-acetoxy-8-hydroxyserrulat-14-en-19-oic acid]
- MIC [1]: 125 µg/mL (≈ 334 µM)

Compound: CC(C)=CCCC(C)C1CCC(C)c2cc(CO)c(O)cc21 (stereo not shown) [Compound 7, 8,19-dihydroxyserrulat-14-ene]
- antimicrobial activity against other Gram-positive bacteria [2]: showed antimicrobial activity

Compound: CC(C)=CCCC(C)C1CCC(C)c2cc(C(=O)O)c(O)cc21 (stereo not shown) [Compound 8, 8-hydroxyserrulat-14-en-19-oic acid]
- antimicrobial activity against other Gram-positive bacteria [2]: showed antimicrobial activity
